In PMC6539495, “Anti-Cancer Activity of Novel Dihydrotestosterone-Derived Ring A-Condensed Pyrazoles on Androgen Non-Responsive Prostate Cancer Cell Lines” (International Journal of Molecular Sciences, 2019):

Experiments:
HeLa cells = experiment: MTT cell viability assay on HeLa cervical cancer cells; assay type: cell-based, human; conditions: 72 hours
Method: (§1) HeLa, MCF-7 and MDA-MB-231 cells were obtained from Sigma-Aldrich and maintained as reported previously. MRC-5, PC-3, DU 145 cells were purchased from American Type Culture Collection (ATCC, Manassas, VA, USA). PC-3 and DU 145 were maintained in RPMI medium (Sigma-Aldrich) whereas MRC-5 cells were maintained in DMEM medium (Sigma-Aldrich). All media were complemented with 10% Fetal bovine serum (FBS, Sigma-Aldrich) 2 mM L-glutamine, 0.01% streptomycin and 0.005% ampicillin (Sigma-Aldrich). Cells were cultured under standard conditions in a 37 °C incubator containing 5% CO2 in 95% humidity.
(§2) Each test compound was dissolved in cell culture grade DMSO (Molar Chemicals, Halásztelek, Hungary) in a final concentration of […]. Antiproliferative action of the synthesized steroids was investigated by MTT assay. An amount of 5000 cells/well were seeded into 96 well plates. Twenty-four hours post seeding, all cell lines were treated with each compound in 10 and 30 μM concentrations for 72 hours. […] After 72 hours, cells were washed with PBS and incubated with culture medium containing 0.5 mg/mL MTT (3-(4, 5-dimethylthiazolyl-2)-2,5-diphenyltetrazolium bromide) reagent (SERVA, GmbH, Heidelberg, Germany) for an hour at 37 °C. Formazan crystals were solubilized in DMSO and extinction was measured at 570 nm using a Synergy HTX plate reader (BioTech-Hungary, Budapest, Hungary). MTT assays were performed at least three times using four independent biological replicates. Data were normalized to solvent controls and the graphical representation of the obtained data as well as the calculation of IC50 values were carried out by GraphPad Prism 7 software (GraphPad Software; San Diego, CA, USA).

MRC-5 cells = experiment: MTT cell viability assay on non-cancerous MRC-5 fibroblasts; assay type: cell-based; conditions: 72 hours, MTT
Method: as §1, §2

MDA-MB-231 cells = experiment: MTT cell viability assay on MDA-MB-231 breast cancer cells; assay type: cell-based, human; conditions: 72 hours
Method: as §1, §2

MCF-7 cells = experiment: MTT cell viability assay on MCF-7 breast cancer cells; assay type: cell-based, human; conditions: 72 hours
Method: as §1, §2

PC-3 cells = experiment: MTT cell viability assay on PC-3 prostate cancer cells; assay type: cell-based, human; conditions: for antiproliferative potency against PC-3 prostate cancer cells compared to MRC-5 non-cancerous fibroblasts: primary screen
Method: as §1, §2

DU 145 cells = experiment: MTT cell viability assay on DU 145 prostate cancer cells; assay type: cell-based, human; conditions: 72 hours
Method: as §1, §2

Row | SMILES | Mean values (%) of primary growth inhibitory screen (viability in %), HeLa (HeLa cells; 10 µM) [%] | Mean values (%) of primary growth inhibitory screen (viability in %), HeLa (HeLa cells; 30 µM) [%] | Mean values (%) of primary growth inhibitory screen (viability in %), MRC-5 (MRC-5 cells; 10 µM) [%] | Mean values (%) of primary growth inhibitory screen (viability in %), MRC-5 (MRC-5 cells; 30 µM) [%] | Mean values (%) of primary growth inhibitory screen (viability in %), MDA-MB-231 (MDA-MB-231 cells; 10 µM) [%] | Mean values (%) of primary growth inhibitory screen (viability in %), MDA-MB-231 (MDA-MB-231 cells; 30 µM) [%] | Mean values (%) of primary growth inhibitory screen (viability in %), MCF-7 (MCF-7 cells; 10 µM) [%] | Mean values (%) of primary growth inhibitory screen (viability in %), MCF-7 (MCF-7 cells; 30 µM) [%] | Mean values (%) of primary growth inhibitory screen (viability in %), PC-3 (PC-3 cells; 10 µM, 72 hours, MTT) [%] | antiproliferative potency against PC-3 prostate cancer cells compared to MRC-5 non-cancerous fibroblasts (PC-3 cells; 10 µM) | Mean values (%) of primary growth inhibitory screen (viability in %), PC-3 (PC-3 cells; 30 µM, 72 hours, MTT) [%] | antiproliferative potency against PC-3 prostate cancer cells compared to MRC-5 non-cancerous fibroblasts (PC-3 cells; 30 µM) | Mean values (%) of primary growth inhibitory screen (viability in %), DU 145 (DU 145 cells; 10 µM) [%] | Mean values (%) of primary growth inhibitory screen (viability in %), DU 145 (DU 145 cells; 30 µM) [%] | IC50 (HeLa cells; ± SD) [µM] | IC50 (MRC-5 cells; ± SD) [µM] | IC50 (MDA-MB-231 cells; ± SD) [µM] | IC50 (MCF-7 cells; ± SD) [µM] | IC50 (PC-3 cells; MTT, 72 hours, ± SD) [µM] | IC50 (DU 145 cells; ± SD) [µM]
1 | Cc1c2c(nn1-c1ccc(F)cc1)C[C@@H]1CC[C@@H]3[C@H](CC[C@]4(C)C(=O)CC[C@@H]34)[C@@]1(C)C2 [5f, 1′-(4″-Fluorophenyl)-5′-methylpyrazolo[3′,4′:3,2]-5α-androst-17-one] | 40.5 | 50.5 | 83.9 | 66.1 | 82.3 | 66.0 | 72.6 | 30.6 | 54.3 | significantly higher | 17.6 | significantly higher | 74.9 | 50.7 |  |  |  |  |  | 
2 | Cc1c2c(nn1-c1ccc(Cl)cc1)C[C@@H]1CC[C@@H]3[C@H](CC[C@]4(C)C(=O)CC[C@@H]34)[C@@]1(C)C2 [5g, 1′-(4″-Chlorophenyl)-5′-methylpyrazolo[3′,4′:3,2]-5α-androst-17-one] | 38.7 | 39.0 | 94.4 | 18.1 | 65.7 | 65.1 | 56.3 | 28.0 | 54.7 | significantly higher | 11.8 |  | 73.7 | 23.2 |  |  |  |  |  | 
3 | Cc1c2c(nn1-c1ccc(C#N)cc1)C[C@@H]1CC[C@@H]3[C@H](CC[C@]4(C)C(=O)CC[C@@H]34)[C@@]1(C)C2 [5i, 1′-(4″-Cyanophenyl)-5′-methylpyrazolo[3′,4′:3,2]-5α-androst-17-one] | 42.2 | 36.4 | 90.4 | 87.9 | 70.6 | 59.7 | 53.2 | 39.4 | 56.2 |  | 70.0 |  | 83.3 | 79.9 |  |  |  |  |  | 
4 | Cc1c2c(nn1-c1ccc([N+](=O)[O-])cc1)C[C@@H]1CC[C@@H]3[C@H](CC[C@]4(C)C(=O)CC[C@@H]34)[C@@]1(C)C2 [5j, 1′-(4″-Nitrophenyl)-5′-methylpyrazolo[3′,4′:3,2]-5α-androst-17-one] | 47.4 | 29.4 | 94.8 | 44.6 | 83.5 | 71.7 | 46.5 | 14.4 | 36.8 | significantly higher | 16.0 | significantly higher | 73.0 | 42.8 | 10.4 ± 0.1 | 25.5 ± 2.3 | > 30 | 11.3 ± 2.8 | 6.7 ± 1.1 | 13.5 ± 1.1
